Results published in patent EP1142881A1, “POLY(ADP-RIBOSE) POLYMERASE INHIBITORS CONSISTING OF PYRIMIDINE DERIVATIVES” (Meiji Seika Kaisha, Ltd., priority 1999, dated 2000).

target: T1, PARP (Rattus norvegicus, UniProt P27008); experiment: Measurement of PARP enzyme activity; assay type: biochemical, Wistar rats; settings: soluble nuclear fraction of Wistar rat forebrain as enzyme source; 250 µM NAD, 32P-NAD; 37°C for 30 minutes; 6 concentrations; read-out: PARP inhibitory activity IC50
T1 construct: Nucleus obtained by centrifugation was extracted with 0.4 M NaCl and the resulting soluble fraction was used as a source of PARP enzyme; from tissue; host or cells: Wistar rat forebrain, nuclear 0.4 M NaCl soluble fraction
Experimental: Test method: The forebrain was collected from Wistar rats and homogenized. Nucleus obtained by centrifugation was extracted with 0.4 M NaCl and the resulting soluble fraction was used as a source of PARP enzyme source. […] Incubation was carried out at 37°C for 30 minutes, and then the reaction was stopped with 20%trichloroacetic acid. The acid-insoluble fraction produced above was adsorbed to a GF/B filter, and the filter was washed several times, and then radioactivity on the filter was measured by using a liquid scintillation counter. The PARP activity was measured by subtracting radioactivity as a blank value of a sample not added with the enzyme source. […]

T1 sequence (P27008 whole entry): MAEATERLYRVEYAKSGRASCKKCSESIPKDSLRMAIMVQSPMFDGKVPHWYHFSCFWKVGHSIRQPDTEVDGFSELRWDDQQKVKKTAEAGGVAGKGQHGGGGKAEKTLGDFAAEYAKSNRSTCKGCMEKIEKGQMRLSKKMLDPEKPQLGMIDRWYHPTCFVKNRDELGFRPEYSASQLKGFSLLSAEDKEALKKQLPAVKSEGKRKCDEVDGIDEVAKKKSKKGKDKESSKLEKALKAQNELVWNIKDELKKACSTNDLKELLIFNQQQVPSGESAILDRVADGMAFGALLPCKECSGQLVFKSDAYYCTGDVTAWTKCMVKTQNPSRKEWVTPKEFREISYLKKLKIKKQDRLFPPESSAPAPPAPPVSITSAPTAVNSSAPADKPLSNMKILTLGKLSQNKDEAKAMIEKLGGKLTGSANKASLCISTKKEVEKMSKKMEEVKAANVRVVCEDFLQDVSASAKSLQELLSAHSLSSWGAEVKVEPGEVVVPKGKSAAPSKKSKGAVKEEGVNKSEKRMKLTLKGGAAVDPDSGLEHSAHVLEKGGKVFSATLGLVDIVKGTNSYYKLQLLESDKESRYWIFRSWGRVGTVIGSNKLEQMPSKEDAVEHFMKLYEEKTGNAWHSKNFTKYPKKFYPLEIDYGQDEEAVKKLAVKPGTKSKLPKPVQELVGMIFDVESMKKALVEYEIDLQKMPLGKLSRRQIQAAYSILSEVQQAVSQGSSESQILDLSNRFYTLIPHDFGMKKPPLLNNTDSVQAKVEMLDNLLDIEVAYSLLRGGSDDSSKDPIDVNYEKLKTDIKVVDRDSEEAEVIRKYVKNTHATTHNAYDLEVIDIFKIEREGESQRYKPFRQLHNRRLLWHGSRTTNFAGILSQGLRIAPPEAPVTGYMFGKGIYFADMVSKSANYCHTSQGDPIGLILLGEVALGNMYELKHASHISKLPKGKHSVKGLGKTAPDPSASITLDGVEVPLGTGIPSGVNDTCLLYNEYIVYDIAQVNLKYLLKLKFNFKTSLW

Compound | IC50
COCC=C1CSCc2c1nc(C)[nH]c2=O [Example 39, 8-(2-Methoxyethylidene)-2-methyl-3,5,7,8-tetrahydrothiopyrano-[4,3-d]pyrimidin-4-one] | 440 nM
O=c1[nH]cnc2c1CSCC2 [Example 3, 3,5,7,8-Tetrahydrothiopyrano[4,3-d]pyrimidin-4-one] | 1460 nM
O=c1[nH]c(-c2ccccc2)nc2c1CSCC2 [Example 4, 2-Phenyl-3,5,7,8-tetrahydrothiopyrano[4,3-d]pyrimidin-4-one] | 410 nM

Results, then the compound that gave them:

IC50 | Compound
250 nM | C=C1CSCc2c1nc(C)[nH]c2=O [Example 20, 2-Methyl-8-methylene-3,5,7,8-tetrahydrothiopyrano[4,3-d]pyrimidin-4-one]
350 nM | C=C1CCCc2c1nc(C)[nH]c2=O [Example 21(A), 2-Methyl-8-methylene-5,6,7,8-tetrahydro-3H-quinazolin-4-one]
